# Laboratory results as given in patent US20180344726A1, “ABUSE RESISTANT TRANSDERMAL DELIVERY DEVICES AND COMPOSITIONS COMPRISING AN OPIOID AGONIST AND A NON-TRANSDERMALLY DELIVERED N-OXIDE DERIVATIVE OF AN OPIOID ANTAGONIST FOR THE TREATMENT OF PAIN” (priority 2015, published 2018).
# Values joined by “and” are separate entries in the source; they are usually repeats but may differ in a detail not shown here. Equal values may be shown once. Read-outs that look alike come from different tables or passages of the source.
# Details: +37° C.; for Concentrations of Naloxone N-oxide in human whole blood samples / Concentrations of Naloxone N-oxide in human plasma samples: single replicates; for Mean concentration of Naloxone N-oxide in human plasma samples / Mean concentration of Naloxone N-oxide in human whole blood samples: mean of n=3
# Excerpt: Analytical procedures followed were based on those outlined in the “Guideline on Bioanalytical Method Validation”, EMA, CHMP, EWP, July 2011 and “Reflection paper for laboratories that perform the analysis or evaluation of clinical trial samples, 28 Feb. 2012, EMA/INS/GCP/532137/2010” with reference to the “Guidance for Industry, Bioanalytical Method Validation” recommendations issued by the U.S. Department of Health and Human Services, Food and Drug Administration, Center for Drug Evaluation and Research (CDER), Center for Veterinary Medicine (CVM), May 2001, BP.
# Control blank human plasma and blood containing K2EDTA as an anti-coagulant, was obtained from Clinical Trials Laboratory Service or BAS volunteers and was stored at nominally −20° C. and +4° C., respectively, when not in use. The mass spectrometer used was an Applied Biosystems AP15000 with the following settings:
# All instrument control, data collection, peak area integration and storage was performed using Analyst (version 1.5.2). Peak areas were then imported into Watson LIMS (version 7.2.0.02) for regression and quantification. The mass spectrometer response (peak area ratio of analyte to internal standard) of each calibration standard was calculated by Watson LIMS and plotted against the nominal (prepared) concentration. A weighted (1/x^2) least squares linear regression analysis was used to calculate an equation of the calibration line.
# Any concentrations below this level are reported as below the limit of quantification (BLQ). Samples with initial concentrations above the upper limit of quantification ([…]) were re-injected with a reduced injection volume (alongside QC High with reduced injection volume) and sample concentrations interpolated against a calibration curve injected with normal injection volume.
# [1] = spiked with Naloxone-N-oxide 50 ng/mL, 30 minutes
# [2] = spiked with Naloxone-N-oxide 50 ng/mL, 45 minutes
# [3] = spiked with Naloxone-N-oxide 50 ng/mL, 60 minutes
# [4] = spiked with Naloxone-N-oxide 50 ng/mL, 120 minutes
# [5] = spiked with Naloxone-N-oxide 250 ng/mL, 0 minutes
# [6] = spiked with Naloxone-N-oxide 250 ng/mL, 10 minutes
# [7] = spiked with Naloxone-N-oxide 250 ng/mL, 20 minutes
# [8] = spiked with Naloxone-N-oxide 250 ng/mL, 30 minutes
# [9] = spiked with Naloxone-N-oxide 250 ng/mL, 45 minutes
# [10] = spiked with Naloxone-N-oxide 250 ng/mL, 60 minutes
# [11] = spiked with Naloxone-N-oxide 250 ng/mL, 120 minutes
smiles,measurement,setting,value
C=CC[N+]1([O-])CC[C@]23c4c5ccc(O)c4O[C@H]2C(=O)CC[C@@]3(O)[C@H]1C5 (stereo partly drawn) [Naloxone N-oxide],Concentrations of Naloxone N-oxide in human whole blood samples,"spiked with Naloxone-N-oxide 50 ng/mL, 20 minutes",20.3 ng/mL and 21.1 ng/mL and 19.9 ng/mL
same,Mean concentration of Naloxone N-oxide in human plasma samples,[1],0.0463 µg/mL
same,Mean concentration of Naloxone N-oxide in human whole blood samples,[1],0.016 µg/mL
same,Concentrations of Naloxone N-oxide in human plasma samples,[1],0.0469 µg/mL and 0.0441 µg/mL and 0.0479 µg/mL
same,Concentrations of Naloxone N-oxide in human whole blood samples,[1],15.9 ng/mL and 15.2 ng/mL and 16.9 ng/mL
same,Mean concentration of Naloxone N-oxide in human plasma samples,[2],0.0474 µg/mL
same,Mean concentration of Naloxone N-oxide in human whole blood samples,[2],0.0144 µg/mL
same,Concentrations of Naloxone N-oxide in human plasma samples,[2],0.0476 µg/mL and 0.0491 µg/mL and 0.0454 µg/mL
same,Concentrations of Naloxone N-oxide in human whole blood samples,[2],14.1 ng/mL (2×) and 15.1 ng/mL
same,Mean concentration of Naloxone N-oxide in human plasma samples,[3],0.048 µg/mL
same,Mean concentration of Naloxone N-oxide in human whole blood samples,[3],0.0104 µg/mL
same,Concentrations of Naloxone N-oxide in human plasma samples,[3],0.05 µg/mL and 0.046 µg/mL and 0.0481 µg/mL
same,Concentrations of Naloxone N-oxide in human whole blood samples,[3],10.7 ng/mL and 10.6 ng/mL and 10.0 ng/mL
same,Mean concentration of Naloxone N-oxide in human plasma samples,[4],0.0461 µg/mL
same,Mean concentration of Naloxone N-oxide in human whole blood samples,[4],0.00424 µg/mL
same,Concentrations of Naloxone N-oxide in human plasma samples,[4],0.0476 µg/mL and 0.0439 µg/mL and 0.0468 µg/mL
same,Concentrations of Naloxone N-oxide in human whole blood samples,[4],3.99 ng/mL and 4.51 ng/mL and 4.22 ng/mL
same,Mean concentration of Naloxone N-oxide in human plasma samples,[5],0.233 µg/mL
same,Mean concentration of Naloxone N-oxide in human whole blood samples,[5],0.255 µg/mL
same,Concentrations of Naloxone N-oxide in human plasma samples,[5],0.236 µg/mL and 0.233 µg/mL and 0.229 µg/mL
same,Concentrations of Naloxone N-oxide in human whole blood samples,[5],245 ng/mL and 254 ng/mL and 265 ng/mL
same,Mean concentration of Naloxone N-oxide in human plasma samples,[6],0.225 µg/mL
same,Mean concentration of Naloxone N-oxide in human whole blood samples,[6],0.141 µg/mL
same,Concentrations of Naloxone N-oxide in human plasma samples,[6],0.218 µg/mL and 0.234 µg/mL and 0.223 µg/mL
same,Concentrations of Naloxone N-oxide in human whole blood samples,[6],135 ng/mL and 143 ng/mL and 144 ng/mL
same,Mean concentration of Naloxone N-oxide in human plasma samples,[7],0.232 µg/mL
same,Mean concentration of Naloxone N-oxide in human whole blood samples,[7],0.111 µg/mL
same,Concentrations of Naloxone N-oxide in human plasma samples,[7],0.228 µg/mL and 0.241 µg/mL and 0.226 µg/mL
same,Concentrations of Naloxone N-oxide in human whole blood samples,[7],107 ng/mL and 111 ng/mL and 115 ng/mL
same,Mean concentration of Naloxone N-oxide in human plasma samples,[8],0.229 µg/mL
same,Mean concentration of Naloxone N-oxide in human whole blood samples,[8],0.0976 µg/mL
same,Concentrations of Naloxone N-oxide in human plasma samples,[8],0.231 µg/mL and 0.229 µg/mL and 0.226 µg/mL
same,Concentrations of Naloxone N-oxide in human whole blood samples,[8],99.0 ng/mL and 96.8 ng/mL and 97.1 ng/mL
same,Mean concentration of Naloxone N-oxide in human plasma samples,[9],0.228 µg/mL
same,Mean concentration of Naloxone N-oxide in human whole blood samples,[9],0.0814 µg/mL
same,Concentrations of Naloxone N-oxide in human plasma samples,[9],0.225 µg/mL and 0.228 µg/mL and 0.23 µg/mL
same,Concentrations of Naloxone N-oxide in human whole blood samples,[9],78.2 ng/mL and 80.8 ng/mL and 85.3 ng/mL
same,Mean concentration of Naloxone N-oxide in human plasma samples,[10],0.231 µg/mL
same,Mean concentration of Naloxone N-oxide in human whole blood samples,[10],0.069 µg/mL
same,Concentrations of Naloxone N-oxide in human plasma samples,[10],0.242 µg/mL and 0.229 µg/mL and 0.221 µg/mL
same,Concentrations of Naloxone N-oxide in human whole blood samples,[10],73.9 ng/mL and 65.5 ng/mL and 67.7 ng/mL
same,Mean concentration of Naloxone N-oxide in human plasma samples,[11],0.225 µg/mL
same,Mean concentration of Naloxone N-oxide in human whole blood samples,[11],0.0493 µg/mL
same,Concentrations of Naloxone N-oxide in human plasma samples,[11],0.239 µg/mL and 0.226 µg/mL and 0.211 µg/mL
same,Concentrations of Naloxone N-oxide in human whole blood samples,[11],46.8 ng/mL and 52.8 ng/mL and 48.3 ng/mL
